According to ChEMBL document CHEMBL1136017, “Computational studies on tetrahydropyrimidine-2-one HIV-1 protease inhibitors: improving three-dimensional quantitative structure-activity relationship comparative molecular field analysis models by inclusion of calculated inhibitor- and receptor-based properties” (J Med Chem, 2002):

biological target: Human immunodeficiency virus type 1 protease (Human immunodeficiency virus 1, UniProt Q72874); test: Inhibitory activity against HIV-1 protease

SMILES | Ki [pM]
Cc1ccc(C(=O)Nc2cccc(CN3C(=O)N(Cc4cccc(NC(=O)c5ccc(C)cn5)c4)[C@H](Cc4ccccc4)[C@H](O)[C@H]3CCc3ccccc3)c2)nc1 | 79.4
N/C(=N\O)c1cccc(CN2C(=O)N[C@H](CCc3ccccc3)[C@@H](O)[C@H]2Cc2ccccc2)c1 | 240
Nc1cccc(CN2C(=O)N[C@H](CCc3ccccc3)[C@@H](O)[C@H]2Cc2ccccc2)c1 | 158000
Nc1cccc(CN2C(=O)N[C@H](Cc3ccccc3)[C@H](O)[C@H]2CCc2ccccc2)c1 | 6170
O=C(Nc1cccc(CN2C(=O)N(Cc3cccc(NC(=O)c4nccs4)c3)[C@H](Cc3ccccc3)[C@H](O)[C@H]2CCc2ccccc2)c1)c1nccs1 | 30.2
